How the values were obtained:
[1] = target: T1, PTPN2 (Mus musculus, UniProt Q06180); assay: HiBiT PTPN2 degradation in B16F10.4 cells, 24 hours; assay type: cell-based
T1 construct: HiBiT; host or cells: B16F10.4
T1 sequence (Q06180 1-406): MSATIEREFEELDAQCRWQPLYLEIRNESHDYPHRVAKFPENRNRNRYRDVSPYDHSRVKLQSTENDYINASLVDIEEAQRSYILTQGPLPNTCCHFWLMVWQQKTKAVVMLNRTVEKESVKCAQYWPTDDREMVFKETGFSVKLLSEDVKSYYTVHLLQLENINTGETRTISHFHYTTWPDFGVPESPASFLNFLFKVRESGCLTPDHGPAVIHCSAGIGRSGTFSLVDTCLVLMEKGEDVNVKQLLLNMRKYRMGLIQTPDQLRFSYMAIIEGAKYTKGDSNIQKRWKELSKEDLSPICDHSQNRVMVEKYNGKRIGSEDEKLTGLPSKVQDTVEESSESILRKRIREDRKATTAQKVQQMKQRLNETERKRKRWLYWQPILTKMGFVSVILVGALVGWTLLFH
Protocol: (§1) PTPN2 degradation was determined based on quantification of luminescent signal using Nano-Glo® HiBiT Lytic Assay kit. Test compounds were added to the 384-well plate from a top concentration of 10 μM with 11 points, half log titration in duplicates. 293T. 109 cells were added into 384-well plates at a cell density of 5000 cells per well. The plates were kept at 37° C. with 5% CO2 for 24 hours. The cells treated in the absence of the test compound were the negative control and the cells without Nano-Glo® HiBiT Lytic reagent were the positive control. After 24-hour incubation, Nano-Glo® HiBiT Lytic Assay reagents were added to the cells. Luminescence was acquired on EnVision™ Multilabel Reader (PerkinElmer, Santa Clara, CA, USA).

[2] = target: T2, PTPN2 (Homo sapiens, UniProt P17706); assay: HiBiT PTPN2 degradation in 293T.109 (HiBiT-PTPN2) cells, 24 hours; assay type: cell-based; settings: 293T.109 cells
T2 construct: expressed in transfected cells; host or cells: 293T.109 (HiBiT-PTPN2), derived from 293T WT (ATCC)
T2 sequence (P17706 1-415): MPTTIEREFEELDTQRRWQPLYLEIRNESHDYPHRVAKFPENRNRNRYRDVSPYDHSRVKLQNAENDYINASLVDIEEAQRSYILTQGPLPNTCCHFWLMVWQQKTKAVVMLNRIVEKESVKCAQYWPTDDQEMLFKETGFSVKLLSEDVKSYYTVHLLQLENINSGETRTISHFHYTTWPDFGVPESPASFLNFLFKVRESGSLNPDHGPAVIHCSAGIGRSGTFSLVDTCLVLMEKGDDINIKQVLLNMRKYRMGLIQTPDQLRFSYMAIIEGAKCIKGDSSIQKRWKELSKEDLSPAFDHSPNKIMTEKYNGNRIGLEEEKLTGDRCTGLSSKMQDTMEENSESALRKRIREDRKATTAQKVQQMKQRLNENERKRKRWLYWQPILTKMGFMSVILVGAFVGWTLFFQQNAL
Description: Dulbecco's modified Eagle medium (DMEM) without phenol red and fetal bovine serum (FBS) were purchased from Gibco (Grand Island, NY, USA). Nano-Glo® HiBiT Lytic Assay System was purchased from Promega (Medison, WI, USA). 293T. 109 (HiBiT-PTPN2) cell line was generated by ectopically expressing PTPN2 with N-terminal HiBiT fusion tag in 293T WT cell line purchased from ATCC (Manassas, VA, USA). Cell culture flasks and 384-well microplates were acquired from VWR (Radnor, PA, USA).
PTPN2 Degradation Analysis
as §1

Row | SMILES | DC50 [1] [nM] | DC50 [2] [nM]
1 | COCCn1c(=O)n(C2CCC(=O)NC2=O)c2ccc(-c3ccc(CC(=O)Nc4ccc5c(F)c(N6CC(=O)NS6(=O)=O)c(O)cc5c4)cc3)cc21 (centres unmarked) [Degrader 45] | 150 to 500 | 150 to 500
2 | Cn1c(=O)n(C2CCC(=O)NC2=O)c2ccc(N3CCC(CC(=O)Nc4ccc5c(F)c(N6CC(=O)NS6(=O)=O)c(O)cc5c4)CC3)c(F)c21 (centres unmarked) [Degrader 46] | 150 to 500 | 50 to 150
3 | Cn1c(=O)n(C2CCC(=O)NC2=O)c2ccc(C3CC4CCC(C3)N4CC(=O)Nc3ccc4c(F)c(N5CC(=O)NS5(=O)=O)c(O)cc4c3)cc21 (centres unmarked) [Degrader 50] | 150 to 500 | 50 to 150
4 | Cn1c(=O)n(C2CCC(=O)NC2=O)c2ccc(C3CC4CCC(C3)N4CC(=O)Nc3ccc4c(F)c(N5CC(=O)NS5(=O)=O)c(O)cc4c3)cc21 (centres unmarked) [Degrader 51] | 150 to 500 | 50 to 150
5 | O=C(CCC(=O)Nc1ccc2c(F)c(N3CC(=O)NS3(=O)=O)c(O)cc2c1)NCc1ccc2c3c(cccc13)C(=O)N2C1CCC(=O)NC1=O (centres unmarked) [Degrader 54] | ≥ 500 | 150 to 500
6 | Cn1c(=O)n(C2CCC(=O)NC2=O)c2cc(F)c(N3CCN(CC(=O)Nc4ccc5c(F)c(N6CC(=O)NS6(=O)=O)c(O)cc5c4)CC3)cc21 (centres unmarked) [Degrader 55] | 150 to 500 | 50 to 150
7 | Cn1c(=O)n(C2CCC(=O)NC2=O)c2ccc(N3CCN(CC(=O)Nc4ccc5c(F)c(N6CC(=O)NS6(=O)=O)c(O)cc5c4)CC3)c(F)c21 (centres unmarked) [Degrader 57] | 150 to 500 | 50 to 150
8 | Cn1c(=O)n(C2CCC(=O)NC2=O)c2cc(F)c(N3CCC(CCNC(=O)Nc4ccc5c(F)c(N6CC(=O)NS6(=O)=O)c(O)cc5c4)CC3)cc21 (centres unmarked) [Degrader 58] | 150 to 500 | < 50
9 | Cn1nc(C2CCC(=O)NC2=O)c2ccc(C3CCN(CCNC(=O)c4ccc5c(F)c(N6CC(=O)NS6(=O)=O)c(O)cc5c4)CC3(F)F)cc21 (centres unmarked) [Degrader 61] | 150 to 500 | 150 to 500
10 | Cn1c(=O)n(C2CCC(=O)NC2=O)c2cccc(N3CCC(CCNC(=O)Nc4ccc5c(F)c(N6CC(=O)NS6(=O)=O)c(O)cc5c4)CC3)c21 (centres unmarked) [Degrader 62] | 150 to 500 | 150 to 500
11 | C[C@H]1CN(CC(=O)Nc2ccc3c(F)c(N4CC(=O)NS4(=O)=O)c(O)cc3c2)CCN1c1cc2c(cc1F)n(C1CCC(=O)NC1=O)c(=O)n2C (some centres unmarked) [Degrader 65] | ≥ 500 | 150 to 500
12 | C[C@H]1CN(CC(=O)Nc2ccc3c(F)c(N4CC(=O)NS4(=O)=O)c(O)cc3c2)CCN1c1ccc2c(c1F)n(C)c(=O)n2C1CCC(=O)NC1=O (some centres unmarked) [Degrader 66] | ≥ 500 | 150 to 500
13 | Cn1c(=O)n(C2CCC(=O)NC2=O)c2ccc(N3CCC(O)(CC(=O)N4CC(Oc5ccc6cc(O)c(N7CC(=O)NS7(=O)=O)c(F)c6c5)C4)CC3)cc21 (centres unmarked) [Degrader 67] | 150 to 500 | 150 to 500
14 | COc1cc(CC(=O)Nc2ccc3c(F)c(N4CC(=O)NS4(=O)=O)c(O)cc3c2)ccc1-c1ccc2c(c1)n(C)c(=O)n2C1CCC(=O)NC1=O (centres unmarked) [Degrader 69] | 150 to 500 | 150 to 500
15 | Cn1c(=O)n(C2CCC(=O)NC2=O)c2cc(F)c(N3CCC(O)(CC(=O)Nc4ccc5c(F)c(N6CC(=O)NS6(=O)=O)c(O)cc5c4)CC3)cc21 (centres unmarked) [Degrader 74] | 150 to 500 | < 50
16 | Cn1c(=O)n(C2CCC(=O)NC2=O)c2ccc3c(c21)CCCN3C1CCN(CC(=O)Nc2ccc3c(F)c(N4CC(=O)NS4(=O)=O)c(O)cc3c2)CC1 (centres unmarked) [Degrader 75] | ≥ 500 | ≥ 500

Next, values leading:

Row | DC50 [1] [nM] | DC50 [2] [nM] | SMILES
17 | 150 to 500 | 150 to 500 | Cn1c(=O)n(C2CCC(=O)NC2=O)c2ccc(-c3ccc(CC(=O)Nc4ccc5c(F)c(N6CC(=O)NS6(=O)=O)c(O)cc5c4)cc3)c(F)c21 (centres unmarked) [Degrader 40]
18 | 50 to 150 | < 50 | Cn1nc(C2CCC(=O)NC2=O)c2ccc(Nc3ccc(CC(=O)Nc4ccc5c(F)c(N6CC(=O)NS6(=O)=O)c(O)cc5c4)cc3F)cc21 (centres unmarked) [Degrader 41]
19 | 50 to 150 | 50 to 150 | Cn1c(=O)n(C2CCC(=O)NC2=O)c2ccc(Nc3cnn(CC(=O)Nc4ccc5c(F)c(N6CC(=O)NS6(=O)=O)c(O)cc5c4)c3)cc21 (centres unmarked) [Degrader 42]
20 | 150 to 500 | < 50 | Cn1c(=O)n(C2CCC(=O)NC2=O)c2cc(F)c(N3CCC(CC(=O)Nc4ccc5c(F)c(N6CC(=O)NS6(=O)=O)c(O)cc5c4)CC3)cc21 (centres unmarked) [Degrader 43]
21 | 150 to 500 | 150 to 500 | Cn1c(=O)n(C2CCC(=O)NC2=O)c2cc(F)c(-c3ccc(CC(=O)Nc4ccc5c(F)c(N6CC(=O)NS6(=O)=O)c(O)cc5c4)cc3)cc21 (centres unmarked) [Degrader 44]
22 | < 50 | 50 to 150 | CCn1c(=O)n(C2CCC(=O)NC2=O)c2ccc(-c3ccc(CC(=O)Nc4ccc5c(F)c(N6CC(=O)NS6(=O)=O)c(O)cc5c4)cc3F)cc21 (centres unmarked) [Degrader 47]
23 | 50 to 150 | 50 to 150 | Cn1nc(C2CCC(=O)NC2=O)c2ccc(Nc3ccc(CC(=O)Nc4ccc5c(F)c(N6CC(=O)NS6(=O)=O)c(O)cc5c4)cc3)cc21 (centres unmarked) [Degrader 48]
24 | 50 to 150 | 50 to 150 | CCn1c(=O)n(C2CCC(=O)NC2=O)c2ccc(-c3ccc(CC(=O)Nc4ccc5c(F)c(N6CC(=O)NS6(=O)=O)c(O)cc5c4)cc3)cc21 (centres unmarked) [Degrader 49]
25 | 50 to 150 | < 50 | Cn1c(=O)n(C2CCC(=O)NC2=O)c2ccc(C3CCN(CCNC(=O)Nc4ccc5c(F)c(N6CC(=O)NS6(=O)=O)c(O)cc5c4)CC3)cc21 (centres unmarked) [Degrader 52]
26 | < 50 | < 50 | O=C1CCC(N2C(=O)c3cccc4c(N5CCC(CCNC(=O)Nc6ccc7c(F)c(N8CC(=O)NS8(=O)=O)c(O)cc7c6)CC5)ccc2c34)C(=O)N1 (centres unmarked) [Degrader 53]
27 | 50 to 150 | 150 to 500 | Cn1c(=O)n(C2CCC(=O)NC2=O)c2ccc(-c3ccc(CC(=O)Nc4ccc5c(F)c(N6CC(=O)NS6(=O)=O)c(O)cc5c4)cc3F)c(F)c21 (centres unmarked) [Degrader 56]
28 | 50 to 150 | 150 to 500 | Cn1c(=O)n(C2CCC(=O)NC2=O)c2ccc(C3CCN(CCNC(=O)c4ccc5c(F)c(N6CC(=O)NS6(=O)=O)c(O)cc5c4)CC3(F)F)cc21 (centres unmarked) [Degrader 59]
29 | 50 to 150 | 150 to 500 | Cn1c(=O)n(C2CCC(=O)NC2=O)c2ccc(-c3ccc(CC(=O)Nc4ccc5c(F)c(N6CC(=O)NS6(=O)=O)c(O)cc5c4)cc3)nc21 (centres unmarked) [Degrader 60]
30 | < 50 | < 50 | CCn1c(=O)n(C2CCC(=O)NC2=O)c2ccc(C3CCN([C@H](CO)C(=O)Nc4ccc5c(F)c(N6CC(=O)NS6(=O)=O)c(O)cc5c4)CC3)cc21 (some centres unmarked) [Degrader 63]
31 | 50 to 150 | < 50 | CCn1c(=O)n(C2CCC(=O)NC2=O)c2ccc(C3CCN([C@@H](CO)C(=O)Nc4ccc5c(F)c(N6CC(=O)NS6(=O)=O)c(O)cc5c4)CC3)cc21 (some centres unmarked) [Degrader 64]
32 | 50 to 150 | 50 to 150 | Cn1c(=O)n(C2CCC(=O)NC2=O)c2ccc(N3CCC(CC4CC4C(=O)Nc4ccc5c(F)c(N6CC(=O)NS6(=O)=O)c(O)cc5c4)CC3)cc21 (centres unmarked) [Degrader 68]
33 | < 50 | < 50 | Cc1nn(CC(=O)Nc2ccc3c(F)c(N4CC(=O)NS4(=O)=O)c(O)cc3c2)c(C)c1-c1ccc2c(c1)n(C)c(=O)n2C1CCC(=O)NC1=O (centres unmarked) [Degrader 70]
34 | 50 to 150 | 50 to 150 | Cn1c(=O)n(C2CCC(=O)NC2=O)c2ccc(Nc3ccc(CC(=O)Nc4ccc5c(F)c(N6CC(=O)NS6(=O)=O)c(O)cc5c4)cc3F)cc21 (centres unmarked) [Degrader 71]
35 | 50 to 150 | < 50 | Cn1c(=O)n(C2CCC(=O)NC2=O)c2ccc(Nc3cccc(CC(=O)Nc4ccc5c(F)c(N6CC(=O)NS6(=O)=O)c(O)cc5c4)c3)cc21 (centres unmarked) [Degrader 72]
36 | 50 to 150 | 50 to 150 | Cn1c(=O)n(C2CCC(=O)NC2=O)c2ccc(-c3ccc(NC(=O)Nc4ccc5c(F)c(N6CC(=O)NS6(=O)=O)c(O)cc5c4)cc3)cc21 (centres unmarked) [Degrader 73]
37 | 50 to 150 | 50 to 150 | Cn1c(=O)n(C2CCC(=O)NC2=O)c2ccc(Oc3ccc(CC(=O)Nc4ccc5c(F)c(N6CC(=O)NS6(=O)=O)c(O)cc5c4)cc3)cc21 (centres unmarked) [Degrader 76]

— patent US20240424111A1, “Degrader Compounds and Uses Thereof” (CALICO LIFE SCIENCES LLC, priority 2021, published 2024)
